This test has as its system NF-kB reporter activity. As to the kind of experiment: NF-kB luciferase reporter assay (TNFa-stimulated NF-kB Reporter-HEK293 cells). It is filed as cell-based, human. The conditions noted are these: for inhibition at 10 µM / IC50 / Percent Inhibition at 10 uM: NF-kB Reporter-HEK293 cells; for inhibition at 10 µM / Percent Inhibition at 10 uM: compound at 10 uM; for inhibition at 10 µM: read-out: Percent Inhibition at 10 uM. Here is the method: NF-kB Reporter-HEK293 cell line (BPS Bioscience #60650); MEM medium (Hyclone #SH30024.01); Fetal bovine serum (Life Technologies #10082147); Non-essential amino acid (Corning 25-025-C1); Na-pyruvate (Hyclone #SH30239.01); Pen-strep (Hyclone #SV30010); Hygromycin B (Invitrogen/Thermo-Fisher #10687010); IKK-16 dihydrochloride—NF-kB inhibitor (Sigma SML1138); TNFa (R&D Systems 210-TA); ONE-Step luciferase assay system (BPS Bioscience #60690).
Cell culture. Cells were cultured in MEM medium with 10% FBS, 1% non-essential amino acid, 1 mM Na-pyruvate, 1% Pen-strep, and 50 μg/mL Hygromycin B.
To perform the NF-kB luciferase reporter assay, NF-kB Reporter—HEK293 cells were seeded at 30,000 cells per well into white clear-bottom 96-well microplate in 60 μL of assay medium (growth medium without Hygromycin B). Cells were incubated at 37° C. and 5% CO2 for 5 hours to allow them attach. A serial dilution of compounds was prepared in assay medium without Hygromycin B. Thirty μL of diluted compounds was added to the treatment wells at the end of the day. Thirty μL of assay medium with the same concentration of DMSO without compound was added to the control wells. One hundred μL of assay medium with DMSO was added to cell-free control wells for determining background luminescence. Cells were incubated at 37° C. and 5% CO2 overnight.
The next day ten μL of diluted human TNFa in assay medium was added to wells (final [TNFa]=10 ng/mL). Ten μL of assay medium was added to unstimulated control wells. Cells were incubated at 37° C. and 5% CO2 for 5-6 hours. After treatment, cells were lysed and the luciferase assay was performed using ONE-Step luciferase assay system: add 100 μL of One-Step Luciferase reagent per well and rock at room temperature for ˜30 minutes. Luminescence was measured using a luminometer (BioTek Synergy™ 2 microplate reader).

Setting [1] is: Homo sapiens, TNFa 10 ng/mL, curve fit with top and bottom locked, read-out: IC50 Lock top and bottom of curve.
The mark [2] stands for this setting: Homo sapiens, overnight compound, TNFa 10 ng/mL 5-6 hours, luciferase, read-out: IC50 against NF-kB reporter activity.
[3] abbreviates: TNFa 10 ng/mL, curve fit with top and bottom locked, read-out: IC50 Lock top and bottom of curve.
Where [4] appears, read: overnight compound, TNFa 10 ng/mL 5-6 hours, luciferase, read-out: IC50 against NF-kB reporter activity.

Structures can show the parent of a compound that is named as a salt. Where two headings read alike, the source gives them in different places.

One may read the inhibition as the drop in the measured response relative to a control, in per cent. A word on the IC50: it is the point on the concentration scale where inhibition reaches its midpoint. On to `Cc1noc2c1-c1ccccc1C(c1ccc(Cl)cc1)=N[C@H]2CC(N)=O` [CPI-0610], for which the inhibition at 10 µM (Homo sapiens, TNFa 10 ng/mL) turned out to be 78%. Moreover, the IC50 under setting [1] was found to be 540 nM and the IC50 under setting [2] turned out to be 270 nM.

Consider `Cc1cnc(Nc2ccc(OCCN3CCCC3)cc2)nc1Nc1cccc(S(=O)(=O)NC(C)(C)C)c1` [Fedratinib (TG101348)], for which the “Percent Inhibition at 10 uM” value (TNFa 10 ng/mL) worked out at 99%. Besides, the IC50 runs as follows: under setting [3], 2900 nM; under setting [4], 6100 nM.

Consider `O=C(c1ccc(Nc2nccc(-c3cc4ccccc4s3)n2)cc1)N1CCC(N2CCCC2)CC1` [IKK-16 dihydrochloride], for which the “Percent Inhibition at 10 uM” value (TNFa 10 ng/mL) is listed as 88%. In addition, the IC50 was 260 nM under setting [3] and 330 nM under setting [4].

Take `N#CCNC(=O)c1ccc(-c2ccnc(Nc3ccc(N4CCOCC4)cc3)n2)cc1` [MMB/Momelotinib, N-(cyanomethyl)-4-(2-(4-morpholinophenylamino)pyrimidin-4-yl)benzamide]: for the setting “Homo sapiens, TNFa 10 ng/mL”, the inhibition at 10 µM amounted to 100%. Also, the IC50 is 430 nM under setting [1] and 470 nM under setting [2]. For the same compound, the “downregulation of NF-κB signaling in a luciferase assay” value (cellular data, compounds ran in parallel) is reported as “downregulates NF-κB signaling”.

As for `C1=C/COCc2cc(ccc2OCCN2CCCC2)Nc2nccc(n2)-c2cccc(c2)COC/1` [Pacritinib (SB1518)], the inhibition at 10 µM (Homo sapiens, TNFa 10 ng/mL) worked out at 100%. The IC50 came to 1200 nM under setting [1] and 1400 nM under setting [2].

For `N#CC[C@H](C1CCCC1)n1cc(-c2ncnc3[nH]ccc23)cn1` [Ruxolitinib (INCB018424)], where the note is “Homo sapiens, TNFa 10 ng/mL”, the inhibition at 10 µM was -11%.

The values are drawn from patent US20240325402A1, “MOMELOTINIB COMBINATION THERAPY” (GlaxoSmithKline LLC, priority 2021, published 2024).
